Reference: US20250000903A1, “EXPANSION PROCESSES AND AGENTS FOR TUMOR INFILTRATING LYMPHOCYTES” (Iovance Biotherapeutics, Inc., priority 2021, published 2025)

Tests used:
Assay type in all cases: cell-based, human
[1] = tested on: tumor-infiltrating lymphocytes (TIL); experiment: TIL ex vivo expansion with AKTi ipatasertib: expansion and viability; details: AKTi 1 μM during ex vivo expansion
Protocol: (§1) Patient tumors from different indications were received, fragmented, and subjected to an expansion protocol for TIL manufacturing. Different doses (0.3 μM and 1 μM) of the pan-AKT inhibitor (AKTi) ipatasertib were added to the culture during ex vivo expansion. The expansion potential, as well as the phenotypic and functional characteristics of TIL were evaluated on the final TIL product.

[2] = tested on: tumor-infiltrating lymphocytes (TIL); experiment: Phenotypic characteristics of final TIL product expanded with AKTi; details: AKTi 1 μM
Protocol: as §1

[3] = tested on: tumor-infiltrating lymphocytes (TIL); experiment: Functional characteristics of final TIL product expanded with AKTi; details: AKTi treatment during ex vivo expansion
Protocol: as §1

Compound: CC(C)NC[C@@H](C(=O)N1CCN(c2ncnc3c2[C@H](C)C[C@H]3O)CC1)c1ccc(Cl)cc1 [AKTi, ipatasertib]
- expansion of TIL relative to control [1]: equivalent
- viability of TIL relative to control [1]: equivalent
- expression of CD38 and the transcription factors T-bet and Tox ([2]; CD39-CD69- cells): reduced
- population of less differentiated CD39-CD69- cells ([2]; present even after re-stimulation): doubled
- cytotoxicity [3]: increased
- frequency of IFNγ+TNFα+CD8+ T cells [3]: increase
